Experimental data: the supplement of paper PMC11208160

Test: recombinant UMI read abundance after kanamycin selection (control-corrected) (log10(CPM+1)); higher = more efficient recombination; extreme values may be limits of the assay; sequences stand for … in AGTGCAGAGAAAATCGGCCAGTTTTCTCTGCCTGCAGTCCGCATGCCGTGGGACCCCTTGGGTTCTAACCTGTTGCCTAGATTTATGCAGCGGACTGCCTTTCTCCCAAAGTGATAAACCGG…AGGTTGGTTTCACT; site = the 11-nt donor
Procedure, shortened: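 Two replicates each of selected and unselected plating were used in this pooled Escherichia coli screen of donor and donor-binding-loop pairs for the IS621 bridge recombinase. Selection was with IPTG (0.07 mM) and kanamycin. Counts of recombinant UMIs, amplified across the donor–target junction, were converted to CPM, averaged, scaled by control-derived factors and reported as log10(CPM+1).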
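Also: IS621 bridge recombinase in Escherichia coli cells against a fixed T5 target plasmid.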

Row | Sequence | recombinant UMI read abundance (log10)
1 | TCCAATTCATGGACCGGTTTTCCCGGTAATCCGTATTTGAC (site TCCAATTCTGA) | 0
2 | TCCAATTCATGGACCGGTTTTCCCGGTAATCCGTATTTGAC (site TCCAATTCTGC) | 0
3 | TCCAATTCATGGACCGGTTTTCCCGGTAATCCGTATTTGAC (site TCCAATTCTGG) | 0
4 | TCCAATTCATGGACCGGTTTTCCCGGTAATCCGTATTTGAC (site TCCAATTCTGT) | 0
5 | TCCAATTCATGGACCGGTTTTCCCGGTAATCCGTATTTGCT (site TCCAATTCTAG) | 0
6 | TCCAATTCATGGACCGGTTTTCCCGGTAATCCGTATTTGCT (site TCCAATTCTCG) | 0
7 | TCCAATTCATGGACCGGTTTTCCCGGTAATCCGTATTTGCT (site TCCAATTCTGG) | 0
8 | TCCAATTCATGGACCGGTTTTCCCGGTAATCCGTATTTGCT (site TCCAATTCTTG) | 0
9 | TCCACCGCATGGACCGGTTTTCCCGGTAATCCGTATTTGGG (site TCCACCGCTCA) | 0.0369
10 | TCCACCGCATGGACCGGTTTTCCCGGTAATCCGTATTTGGG (site TCCACCGCTCC) | 0.00928
11 | TCCACCGCATGGACCGGTTTTCCCGGTAATCCGTATTTGGG (site TCCACCGCTCG) | 0.0231
12 | TCCACCGCATGGACCGGTTTTCCCGGTAATCCGTATTTGGG (site TCCACCGCTCT) | 0.0189
13 | TCCATCGCATGGACCGGTTTTCCCGGTAATCCGTATTTGCG (site TCCAACGCTCG) | 0
14 | TCCATCGCATGGACCGGTTTTCCCGGTAATCCGTATTTGCG (site TCCACCGCTCG) | 0.0339
15 | TCCATCGCATGGACCGGTTTTCCCGGTAATCCGTATTTGCG (site TCCAGCGCTCG) | 0.047
16 | TCCATCGCATGGACCGGTTTTCCCGGTAATCCGTATTTGCG (site TCCATCGCTCG) | 0.00801
17 | TCCCAATCATGGACCGGTTTTCCCGGTAATCCGTATTTGTT (site TCCCAATCTAA) | 0.00639
18 | TCCCACCCATGGACCGGTTTTCCCGGTAATCCGTATTTGCA (site TCCCACCCTTG) | 0
19 | TCCCATACATGGACCGGTTTTCCCGGTAATCCGTATTTGGC (site TCCCATACTGC) | 0
20 | TCCCCCGCATGGACCGGTTTTCCCGGTAATCCGTATTTGCG (site TCCACCGCTCG) | 0.00501
21 | TCCCCCGCATGGACCGGTTTTCCCGGTAATCCGTATTTGCG (site TCCCCCGCTCG) | 0.0127
22 | TCCCCCGCATGGACCGGTTTTCCCGGTAATCCGTATTTGCG (site TCCGCCGCTCG) | 0.0064
23 | TCCCCCGCATGGACCGGTTTTCCCGGTAATCCGTATTTGCG (site TCCTCCGCTCG) | 0.00786
24 | TCCCCTACATGGACCGGTTTTCCCGGTAATCCGTATTTGCC (site TCCCCTACTGG) | 0
25 | TCCCTTACATGGACCGGTTTTCCCGGTAATCCGTATTTGTA (site TCCCTTACTTA) | 0.0182

Row | Sequence | recombinant UMI read abundance (log10)
26 | TCCCTTGCATGGACCGGTTTTCCCGGTAATCCGTATTTGGT (site TCCCTTGCTAC) | 0
27 | TCCGACGCATGGACCGGTTTTCCCGGTAATCCGTATTTGCT (site TCCGACGCTAG) | 0.968
28 | TCCGGAACATGGACCGGTTTTCCCGGTAATCCGTATTTGCT (site TCCGGAACTAG) | 0
29 | TCCGGGTCATGGACCGGTTTTCCCGGTAATCCGTATTTGAC (site GGAATCGCTAG) | 0
30 | TCCGGTCCATGGACCGGTTTTCCCGGTAATCCGTATTTGCA (site ACCGGTCCTTG) | 0
31 | TCCGGTCCATGGACCGGTTTTCCCGGTAATCCGTATTTGCA (site CCCGGTCCTTG) | 0
32 | TCCGGTCCATGGACCGGTTTTCCCGGTAATCCGTATTTGCA (site GCCGGTCCTTG) | 0
33 | TCCGGTCCATGGACCGGTTTTCCCGGTAATCCGTATTTGCA (site TCCGGTCCTTG) | 0
34 | TCCTACGCATGGACCGGTTTTCCCGGTAATCCGTATTTGCC (site TCCTACGCTGG) | 0
35 | TCCTCCACATGGACCGGTTTTCCCGGTAATCCGTATTTGGT (site TCCTCCACTAC) | 0.0263
36 | TCCTCGCCATGGACCGGTTTTCCCGGTAATCCGTATTTGTT (site TCCTCGCCTAA) | 0.0142
37 | TCCTGAACATGGACCGGTTTTCCCGGTAATCCGTATTTGCT (site TCCTGAACTAG) | 0
38 | TCCTGGCCATGGACCGGTTTTCCCGGTAATCCGTATTTGTA (site TCCTGGCCTTA) | 0.0229
39 | TCCTTACCATGGACCGGTTTTCCCGGTAATCCGTATTTGGA (site TCCTTACCTTC) | 0.00485
40 | TCCTTCGCATGGACCGGTTTTCCCGGTAATCCGTATTTGCT (site GATCCACCTTC) | 0.0105
41 | TCGAAAACATGGACCGGTTTTCCCGGTAATCCGTATTTGCT (site ACGAAAACTAG) | 0
42 | TCGAAAACATGGACCGGTTTTCCCGGTAATCCGTATTTGCT (site CCGAAAACTAG) | 0.679
43 | TCGAAAACATGGACCGGTTTTCCCGGTAATCCGTATTTGCT (site GCGAAAACTAG) | 0
44 | TCGAAAACATGGACCGGTTTTCCCGGTAATCCGTATTTGCT (site TCGAAAACTAG) | 0
45 | TCGAAGTCATGGACCGGTTTTCCCGGTAATCCGTATTTGCG (site TCGAAGTCTCG) | 1.9
46 | TCGACGGCATGGACCGGTTTTCCCGGTAATCCGTATTTGAC (site TCGACGGCTGT) | 0.0562
47 | TCGACGGCATGGACCGGTTTTCCCGGTAATCCGTATTTGTG (site TCGACGGCTCA) | 0.539
48 | TCGATAGCATGGACCGGTTTTCCCGGTAATCCGTATTTGGG (site TCGATAGCTCC) | 0.00329
49 | TCGATGGCATGGACCGGTTTTCCCGGTAATCCGTATTTGCC (site TCGATGGCTGG) | 0
50 | TCGATGTCATGGACCGGTTTTCCCGGTAATCCGTATTTGTA (site TCGATGTCTTA) | 1.41

Row | Sequence | recombinant UMI read abundance (log10)
51 | TCGATGTCATGGACCGGTTTTCCCGGTAATCCGTATTTGTG (site TCGATGTCTCA) | 0.868
52 | TCGCAAACATGGACCGGTTTTCCCGGTAATCCGTATTTGCC (site TCGCAAACTGG) | 0
53 | TCGCAACCATGGACCGGTTTTCCCGGTAATCCGTATTTGTT (site TCGCAACCTAA) | 0
54 | TCGCATGCATGGACCGGTTTTCCCGGTAATCCGTATTTGGT (site TCGCATGCTAC) | 0.656
55 | TCGCCAGCATGGACCGGTTTTCCCGGTAATCCGTATTTGTG (site TCGCCAGCTCA) | 0.0192
56 | TCGCCATCATGGACCGGTTTTCCCGGTAATCCGTATTTGTT (site TCGCCATCTAA) | 0.0036
57 | TCGCCTTCATGGACCGGTTTTCCCGGTAATCCGTATTTGGT (site TAGCCTTCTAC) | 0.0118
58 | TCGCCTTCATGGACCGGTTTTCCCGGTAATCCGTATTTGGT (site TCGCCTTCTAC) | 0.00817
59 | TCGCCTTCATGGACCGGTTTTCCCGGTAATCCGTATTTGGT (site TGGCCTTCTAC) | 0.00543
60 | TCGCCTTCATGGACCGGTTTTCCCGGTAATCCGTATTTGGT (site TTGCCTTCTAC) | 0.00786
61 | TCGCGAACATGGACCGGTTTTCCCGGTAATCCGTATTTGTA (site TCGCGAACTTA) | 1.18
62 | TCGCTAGCATGGACCGGTTTTCCCGGTAATCCGTATTTGAA (site TAGCTAGCTTT) | 0.00313
63 | TCGCTAGCATGGACCGGTTTTCCCGGTAATCCGTATTTGAA (site TCGCTAGCTTT) | 0.00622
64 | TCGCTAGCATGGACCGGTTTTCCCGGTAATCCGTATTTGAA (site TGGCTAGCTTT) | 0
65 | TCGCTAGCATGGACCGGTTTTCCCGGTAATCCGTATTTGAA (site TTGCTAGCTTT) | 0.0117
66 | TCGCTAGCATGGACCGGTTTTCCCGGTAATCCGTATTTGGC (site TCGCTAGCTGC) | 0
67 | TCGCTGTCATGGACCGGTTTTCCCGGTAATCCGTATTTGGA (site TCGCTGTCTTC) | 1.34
68 | TCGGAGACATGGACCGGTTTTCCCGGTAATCCGTATTTGAT (site TCGGAGACTAT) | 1.93
69 | TCGGATACATGGACCGGTTTTCCCGGTAATCCGTATTTGCC (site TCGGATACTGG) | 0.615
70 | TCGGATCCATGGACCGGTTTTCCCGGTAATCCGTATTTGTC (site TCGGATCCTGA) | 0.795
71 | TCGGATGCATGGACCGGTTTTCCCGGTAATCCGTATTTGAG (site TCGGATGCTCT) | 1.56
72 | TCGGTATCATGGACCGGTTTTCCCGGTAATCCGTATTTGCA (site ACAGTATCTTG) | 1.54
73 | TCGGTATCATGGACCGGTTTTCCCGGTAATCCGTATTTGCA (site TCGGTATCTTG) | 2.31
74 | TCGTAGCCATGGACCGGTTTTCCCGGTAATCCGTATTTGTG (site TCGTAGCCTCA) | 0.0471
75 | TCGTATGCATGGACCGGTTTTCCCGGTAATCCGTATTTGAC (site TCGTATGCTGT) | 0.101
